# Experimental data published in patent US11066447B2, “Aureobasidium derivatives and methods of synthesis” (AureoGen Biosciences, Inc., priority 2016, dated 2021).
# Where two headings read alike, the source gives them in different places. Numbered stars: 1 amine (or outer) side, 2 acyl side, 3 side chain; on linkers, the order of the positions; unused ones are H or OH. Square brackets hold non-standard residues; d marks the D form. Peptide text beside a SMILES is read from it. X3 = CN1CCN(c2ccc(-c3cccc(C[C@@H](C(=O)[*:2])N(C)[*:1])c3)cn2)CC1; X11 = CN([C@@H](Cc1cccc(-c2cccc3ncccc23)c1)C(=O)[*:2])[*:1]; X22 = CN([C@@H](Cc1cccc(-c2cncc3ccccc23)c1)C(=O)[*:2])[*:1]; Hmp(2R,3S) = CC[C@H](C)[C@@H](O)C(=O)O; NMeVal(β-OH) = CN[C@H](C(=O)O)C(C)(C)O; NMeV = CN[C@H](C(=O)O)C(C)C
# Columns and labels:
# [1] = test system: C. albicans MMX 2000 ATCC 10231; assay: MIC assay (CLSI microdilution); assay type: cell-based; conditions: Candida albicans, ATCC10231, RPMI plus 0.002% Tween-80; read-out: MIC
# [2] = test system: C. neoformans MMX 0634 ATCC 90112; assay: MIC assay (CLSI microdilution); assay type: cell-based; conditions: Cryptococcus neoformans, read-out: MIC
# [3] = test system: C. parapsilosis MMX 2323 ATCC 22019; assay: MIC assay (CLSI microdilution); assay type: cell-based, Candida parapsilosis
# In short: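 Broth microdilution MIC testing of Candida parapsilosis ATCC 22019 followed CLSI methods in RPMI-1640, with or without 0.002% Tween-80. Yeast grown 48 hours at 35° C on Sabouraud dextrose agar was suspended to a 0.5 McFarland standard and diluted 1:100 to roughly 0.5-2.5×10^3 CFU/mL. The MIC was the lowest concentration preventing visible growth.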
# A. flavus MMX 5948 = assay: MIC/MEC assay (CLSI microdilution); assay type: cell-based; conditions: Aspergillus flavus, MMX5948, 48 h
# In short: (§1)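 Aspergillus spore suspensions, diluted from counted stocks to a final approximately 0.2-2.5×10^4 CFU/mL, were inoculated into RPMI-1640 containing 0.002% Tween-80 holding two-fold drug dilutions. Compounds came from 95% ethanol, amphotericin B (0.06-64 μg/mL) from DMSO. MMX 5280 was also tested without Tween-80.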
# A. fumigatus MMX 5944 = assay: MIC/MEC assay (CLSI microdilution); assay type: cell-based; conditions: Aspergillus fumigatus, MMX5944, 48 h; for minimal effective concentration: RPMI plus 0.002% Tween-80; for MIC: RPMI plus 0.002% Tween-80, read-out: MIC
# In short: as §1
# [4] = test system: A. fumigatus MMX 6781 ATCC MYA-4609; assay: MIC/MEC assay (CLSI microdilution); assay type: cell-based; conditions: Aspergillus fumigatus; for MIC: 48 h, RPMI plus 0.002% Tween-80, read-out: MIC; for minimal effective concentration: RPMI plus 0.002% Tween-80, 48 hr
# In short: as §1
# [5] = test system: A. fumigatus MMX 6782 ATCC 13073; assay: MIC/MEC assay (CLSI microdilution); assay type: cell-based; conditions: Aspergillus fumigatus, ATCC13073, 48 h
# In short: as §1
# [6] = test system: A. fumigatus from Aureogen; assay: MIC/MEC assay (CLSI microdilution); assay type: cell-based; conditions: Aspergillus fumigatus, 48 h; for minimal effective concentration: RPMI plus 0.002% Tween-80; for MIC: RPMI plus 0.002% Tween-80, read-out: MIC
# In short: as §1
# [7] = test system: A. niger MMX 0624 ATCC 16888; assay: MIC/MEC assay (CLSI microdilution); assay type: cell-based; conditions: Aspergillus niger, ATCC16888, 48 h
# In short: as §1
# [8] = test system: A. fumigatus MMX 5280 ATCC MYA-3626; assay: MIC/MEC assay (CLSI microdilution); assay type: cell-based, Aspergillus fumigatus
# In short: as §1
# [9] = test system: C. albicans MMX 2000 ATCC 10231; assay: MIC assay (CLSI microdilution); assay type: cell-based; conditions: Candida albicans
# [10] = ATCC90112, RPMI plus 0.002% Tween-80
# [11] = ATCC22019, RPMI plus 0.002% Tween-80, read-out: MIC
# [12] = ATCC22019, Without Tween-80, read-out: MIC
# [13] = RPMI plus 0.002% Tween-80, read-out: MIC
# [14] = RPMI plus 0.002% Tween-80, read-out: MEC
# [15] = Aspergillus fumigatus, 48 h, RPMI plus 0.002% Tween-80, read-out: MEC
# [16] = Aspergillus fumigatus, 48 h, RPMI plus 0.002% Tween-80, read-out: MIC
# [17] = Aspergillus fumigatus, 48 h, Without Tween-80, read-out: MEC
# [18] = Aspergillus fumigatus, 48 h, Without Tween-80, read-out: MIC
# [19] = read-out: MEC, RPMI plus 0.002% Tween-80
SMILES,MIC [1] [µg/mL],"MIC [2, 10] [µg/mL]","MIC [3, 11] [µg/mL]","MIC [3, 12] [µg/mL]",minimal effective concentration (A. flavus MMX 5948; RPMI plus 0.002% Tween-80) [µg/mL],MIC (A. flavus MMX 5948; [13]) [µg/mL],minimal effective concentration (A. fumigatus MMX 5944) [µg/mL],MIC (A. fumigatus MMX 5944) [µg/mL],MIC [4] [µg/mL],minimal effective concentration [4] [µg/mL],"MIC [5, 13] [µg/mL]",minimal effective concentration [6] [µg/mL],MIC [6] [µg/mL],"minimal effective concentration [7, 14] [µg/mL]","MIC [7, 13] [µg/mL]","minimal effective concentration [8, 15] [µg/mL]","MIC [8, 16] [µg/mL]","minimal effective concentration [8, 17] [µg/mL]","MIC [8, 18] [µg/mL]","MIC ([8]; Without Tween-80, 48 hr)",also measured
"CC[C@H](C)[C@@H]1NC(=O)[C@@H]2CCCN2C(=O)[C@H](Cc2cccc(-c3ccc(N4CCN(C)CC4)nc3)c2)N(C)C(=O)[C@H](Cc2ccccc2)NC(=O)[C@H](C(C)C)N(C)C(=O)[C@@H]([C@@H](C)CC)OC(=O)[C@H](C(C)(C)O)N(C)C(=O)[C@H](CC(C)C)NC(=O)[C@H](C(C)C)N(C)C1=O [Compound 20] (cyclo(F[X3]PI[NMeV]L[NMeVal(β-OH)][Hmp(2R,3S)][NMeV]))",0.008,0.03,0.03,1,0.008,0.015,0.015,0.12,0.12,0.06,0.12,0.03,0.12,0.008,0.015,0.06,0.25,0.5,1,2 µg/mL,"MIC ([2]; ATCC90112, 72 h, 72 hour, RPMI plus 0.002% Tween-80): 0.12 µg/mL; MIC ([3]; Without Tween-80): 2 µg/mL; minimal effective concentration [5, 14]: 0.03 µg/mL; MEC ([8]; Without Tween-80, 48 hr): 1 µg/mL; MIC ([9]; ATCC10231, Without Tween-80, read-out: MIC): 0.5 µg/mL"
"CC[C@H](C)[C@@H]1NC(=O)[C@@H]2CCCN2C(=O)[C@H](Cc2cccc(-c3cccc4ncccc34)c2)N(C)C(=O)[C@H](Cc2ccccc2)NC(=O)[C@H](C(C)C)N(C)C(=O)[C@@H]([C@@H](C)CC)OC(=O)[C@H](C(C)(C)O)N(C)C(=O)[C@H](CC(C)C)NC(=O)[C@H](C(C)C)N(C)C1=O [Compound 28] (cyclo(F[X11]PI[NMeV]L[NMeVal(β-OH)][Hmp(2R,3S)][NMeV]))",–,–,–,–,–,–,–,–,–,–,–,–,–,–,–,–,–,–,–,>64/>64 μg/mL,"MIC ([3]; ATCC22019, RPMI plus 0.002% Tween-80): 0.06 µg/mL; MIC ([3]; ATCC22019, Without Tween-80): 0.5 µg/mL; MIC (A. flavus MMX 5948; RPMI plus 0.002% Tween-80): > 64 µg/mL; MIC ([5]; RPMI plus 0.002% Tween-80): > 64 µg/mL; minimal effective concentration [5, 19]: > 64 µg/mL; MIC ([7]; RPMI plus 0.002% Tween-80): 0.12 µg/mL; minimal effective concentration [7, 19]: 0.12 µg/mL; minimal effective concentration ([8]; Aspergillus fumigatus, 48 h, read-out: MEC, RPMI plus 0.002% Tween-80): > 64 µg/mL; minimal effective concentration ([8]; Aspergillus fumigatus, 48 h, read-out: MEC, Without Tween-80): > 64 µg/mL; MIC ([9]; ATCC10231, RPMI plus 0.002% Tween-80): 0.015 µg/mL"
"CC[C@H](C)[C@@H]1NC(=O)[C@@H]2CCCN2C(=O)[C@H](Cc2cccc(-c3cncc4ccccc34)c2)N(C)C(=O)[C@H](Cc2ccccc2)NC(=O)[C@H](C(C)C)N(C)C(=O)[C@@H]([C@@H](C)CC)OC(=O)[C@H](C(C)(C)O)N(C)C(=O)[C@H](CC(C)C)NC(=O)[C@H](C(C)C)N(C)C1=O [Compound 29] (cyclo(F[X22]PI[NMeV]L[NMeVal(β-OH)][Hmp(2R,3S)][NMeV]))",0.008,0.06,0.06,1,> 64,> 64,> 64,> 64,> 64,> 64,> 64,> 64,> 64,0.12,0.12,> 64,> 64,> 64,> 64,–,–
